What all share (assay type): biochemical
In assay [1] the target is T1, PIP4K2A (Homo sapiens, UniProt P48426).
T1 sequence (P48426 1-406): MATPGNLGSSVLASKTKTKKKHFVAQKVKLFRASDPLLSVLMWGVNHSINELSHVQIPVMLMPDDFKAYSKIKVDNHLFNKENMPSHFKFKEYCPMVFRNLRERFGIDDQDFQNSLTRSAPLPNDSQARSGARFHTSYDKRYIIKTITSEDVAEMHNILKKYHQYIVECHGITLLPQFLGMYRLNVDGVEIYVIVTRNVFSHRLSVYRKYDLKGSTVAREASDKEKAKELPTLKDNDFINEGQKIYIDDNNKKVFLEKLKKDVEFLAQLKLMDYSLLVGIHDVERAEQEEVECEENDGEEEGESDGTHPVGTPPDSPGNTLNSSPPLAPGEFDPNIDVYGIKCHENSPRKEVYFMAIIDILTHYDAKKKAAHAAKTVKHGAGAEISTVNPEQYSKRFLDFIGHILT
The assay is described as follows: ADP-glo kinase assay PIP4K 2A (Table 3). Set-up: made in house; host or cells: E. coli. To be noted: compounds listed under IC50 bins. In a few lines:
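Full-length PIP4K2A (4 nM in the mix) with 100 μM PI(5)P diC8 pre-incubated 15 min with compound in MOPS pH 7.2, 25 mM MgCl2; ATP added (60 μM solution), 1 h at RT. ADP formed read by ADP-Glo luminescence; 10-point curves versus DMSO controls fitted to IC50.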
Background: In ADP-Glo the light output rises with the ADP produced.

Assay [2] has as its target T1, PIP4K2A. Briefly: Kinase Assay PIP4K2 A (Table 2). Details: 4 nM PIP4K2A (full length protein, SignalChem); purchased SignalChem. As to conditions: compounds listed under IC50 bins. In a few lines:
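Full-length PIP4K2A (4 nM in the added mix, with 100 μM PI(5)P diC8) pre-incubated 15 min at RT with compounds (10-point, 3-fold series) in 20 mM MOPS pH 7.2, 25 mM MgCl2, 0.005% Tween 20. ATP added from a 60 μM solution, 1 h at RT; ADP-Glo luminescence, IC50 fitted from % inhibition versus DMSO.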

For a further assay, the target named is T2, PIP4K2B (Homo sapiens, UniProt P78356).
T2 construct: made in house; host or cells: E. coli
T2 sequence (P78356 1-416): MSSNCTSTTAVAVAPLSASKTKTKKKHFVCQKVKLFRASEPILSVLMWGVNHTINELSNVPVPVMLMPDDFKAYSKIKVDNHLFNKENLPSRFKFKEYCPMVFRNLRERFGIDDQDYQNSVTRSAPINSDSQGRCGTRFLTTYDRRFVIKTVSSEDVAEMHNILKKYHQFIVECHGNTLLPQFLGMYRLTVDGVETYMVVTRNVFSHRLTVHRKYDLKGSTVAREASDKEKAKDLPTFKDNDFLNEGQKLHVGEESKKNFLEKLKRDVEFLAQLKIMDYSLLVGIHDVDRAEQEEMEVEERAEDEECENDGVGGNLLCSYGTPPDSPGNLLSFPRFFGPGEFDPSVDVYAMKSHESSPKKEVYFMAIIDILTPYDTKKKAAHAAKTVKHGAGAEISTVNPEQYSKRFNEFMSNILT
Briefly: Trans-FI P kinase assay PIP4K2B (Table 4). To be noted: compounds listed under IC50 bins; read-out: Trans-FI P kinase assays: PIP4K2B IC50. The procedure, abridged:
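Transcreener FI detection (Ex 584/Em 623) of GDP, converted via calibration curve, gives IC50 from residual activity versus log concentration (highest 4.8 μM). Reaction: 80 μM PI5P plus DOPE carrier, 100 μM GTP, 5 nM GST-tagged enzyme, pH 7.3 HEPES with MgCl2 and 5% DMSO, 2 h after 1 h enzyme-compound preincubation at 27° C.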

Molecules are shown by their SMILES. pIC50: −log10 of the molar value.

What is called pIC50 is the IC50 on a negative log10 scale, so that one unit is a factor of ten. On to `CN(C)C/C=C/C(=O)Nc1ccc(C(=O)Nc2cncc(Nc3ccc(-c4ccc(C(=O)N(C)C)cc4)cn3)c2)cc1` [Example 117, (E)-4-(6-((5-(4-(4-(dimethylamino)but-2-enamido)benzamido)pyridin-3-yl)amino)pyridin-3-yl)-N,N-dimethylbenzamide], for which the pIC50 against PIP4K2A [1] is 7.00 to 8.00; against PIP4K2A [2] it was 8.00 to 9.00; on PIP4K2B, 7.00 to 8.00.
`CN(C)C(=O)c1ccc(-c2ccc(Nc3cncc(NC(=O)CCc4ccc(N)cc4)c3)nc2)cc1` [Example 118, 4-(6-((5-(3-(4-aminophenyl)propanamido)pyridin-3-yl)amino)pyridin-3-yl)-N,N-dimethylbenzamide]: the pIC50 against PIP4K2A [1], on PIP4K2A [2] and on PIP4K2B was 7.00 to 8.00 each time.
`CN(C)C/C=C/C(=O)Nc1ccc(CCC(=O)Nc2cncc(Nc3ccc(-c4ccc(C(=O)N(C)C)cc4)cn3)c2)cc1` [Example 119, (E)-4-(6-((5-(3-(4-(4-(dimethylamino)but-2-enamido)phenyl)propanamido)pyridin-3-yl)amino)pyridin-3-yl)-N,N-dimethylbenzamide]: the pIC50 on PIP4K2A [1] is 7.00 to 8.00; against PIP4K2A [2], 8.00 to 9.00; at PIP4K2B, 7.00 to 8.00.
In the case of `COC(=O)Nc1cncc(Nc2ccc(-c3ccc(C(=O)N(C)C)cc3)cn2)c1` [Example 120, methyl(5-((5-(4-(dimethylcarbamoyl)phenyl)pyridin-2-yl)amino)pyridin-3-yl)carbamate], the values for the pIC50 on PIP4K2A [1], on PIP4K2A [2] and on PIP4K2B were 6.00 to 7.00, 7.00 to 8.00 and 7.00 to 8.00, respectively.
Regarding `CN(C)C(=O)c1ccc(-c2ccc(Nc3cncc(NC(=O)c4ccccc4)c3)nc2)cc1` [Example 121, 4-(6-((5-benzamidopyridin-3-yl)amino)pyridin-3-yl)-N,N-dimethylbenzamide], the pIC50 against PIP4K2A [1], at PIP4K2A [2] and on PIP4K2B was 7.00 to 8.00 throughout.
On to `CN(C)C(=O)c1ccc(-c2ccc(Nc3cncc(NC(=O)CC#N)c3)nc2)cc1` [Example 122, 4-(6-((5-(2-cyanoacetamido)pyridin-3-yl)amino)pyridin-3-yl)-N,N-dimethylbenzamide], for which the pIC50 was 6.00 to 7.00 on PIP4K2A [1], 7.00 to 8.00 at PIP4K2A [2] and 7.00 to 8.00 at PIP4K2B.
As for `CN(C)C(=O)c1ccc(-c2ccc(Nc3cncc(NC(=O)Cc4ccccc4)c3)nc2)cc1` [Example 123, N,N-dimethyl-4-(6-((5-(2-phenylacetamido)pyridin-3-yl)amino)pyridin-3-yl)benzamide], the pIC50 was 6.00 to 7.00 at PIP4K2A [1], 7.00 to 8.00 on PIP4K2A [2] and 7.00 to 8.00 at PIP4K2B.
With `CNC(=O)Nc1cncc(Nc2ccc(-c3ccc(C(=O)N(C)C)cc3)cn2)c1` [Example 124, N,N-dimethyl-4-(6-((5-(3-methylureido)pyridin-3-yl)amino)pyridin-3-yl)benzamide], the pIC50 on PIP4K2A [1], at PIP4K2A [2] and on PIP4K2B was 7.00 to 8.00 each time.
On to `CN(C)CC(=O)Nc1cncc(Nc2ccc(-c3ccc(C(=O)N(C)C)cc3)cn2)c1` [Example 125, 4-(6-((5-(2-(dimethylamino)acetamido)pyridin-3-yl)amino)pyridin-3-yl)-N,N-dimethylbenzamide], for which the pIC50 against PIP4K2A [1] was 6.00 to 7.00; against PIP4K2A [2] it was 6.00 to 7.00; on PIP4K2B it was 7.00 to 8.00.
As to `CN(C)C(=O)c1ccc(-c2ccc(Nc3cncc(NC(=O)C4CCOCC4)c3)nc2)cc1` [Example 126, N-(5-((5-(4-(dimethylcarbamoyl)phenyl)pyridin-2-yl)amino)pyridin-3-yl)tetrahydro-2H-pyran-4-carboxamide], the pIC50 is 6.00 to 7.00 against PIP4K2A [1], 7.00 to 8.00 against PIP4K2A [2] and 7.00 to 8.00 on PIP4K2B.
On to `CN(C)C(=O)c1ccc(-c2ccc(Nc3cncc(NS(C)(=O)=O)c3)nc2)cc1` [Example 127, N,N-dimethyl-4-(6-((5-(methylsulfonamido)pyridin-3-yl)amino)pyridin-3-yl)benzamide], for which the pIC50 against PIP4K2A [1], against PIP4K2A [2] and on PIP4K2B was 7.00 to 8.00 throughout.
For the compound `CN(C)C(=O)c1ccc(-c2ccc(Nc3cncc(NC(=O)c4ccccn4)c3)nc2)cc1` [Example 128, N-(5-((5-(4-(dimethylcarbamoyl)phenyl)pyridin-2-yl)amino)pyridin-3-yl)picolinamide], the pIC50 against PIP4K2A [1] was 6.00 to 7.00; on PIP4K2A [2], 7.00 to 8.00; on PIP4K2B it was 7.00 to 8.00.
With `CN(C)C(=O)c1ccc(-c2ccc(Nc3cncc(NC(=O)c4cccnc4)c3)nc2)cc1` [Example 129, N-(5-((5-(4-(dimethylcarbamoyl)phenyl)pyridin-2-yl)amino)pyridin-3-yl)nicotinamide], the figures for the pIC50 at PIP4K2A [1], against PIP4K2A [2] and on PIP4K2B were 6.00 to 7.00, 7.00 to 8.00 and 7.00 to 8.00, respectively.
Regarding `CN(C)C(=O)c1ccc(-c2ccc(Nc3cncc(NC(=O)c4ccncc4)c3)nc2)cc1` [Example 130, N-(5-((5-(4-(dimethylcarbamoyl)phenyl)pyridin-2-yl)amino)pyridin-3-yl)isonicotinamide], the pIC50 was 6.00 to 7.00 on PIP4K2A [1], 7.00 to 8.00 against PIP4K2A [2] and 7.00 to 8.00 on PIP4K2B.
For the compound `CN(C)C(=O)c1ccc(-c2ccc(Nc3cncc(NC(=O)c4ccnc(N)c4)c3)nc2)cc1` [Example 131, 2-amino-N-(5-((5-(4-(dimethylcarbamoyl)phenyl)pyridin-2-yl)amino)pyridin-3-yl)isonicotinamide], the results for the pIC50 against PIP4K2A [1], against PIP4K2A [2] and at PIP4K2B were 7.00 to 8.00, 8.00 to 9.00 and 7.00 to 8.00, respectively.
`CN(C)C(=O)c1ccc(-c2ccc(Nc3cncc(NC(=O)c4ccc5c(c4)COB5O)c3)nc2)cc1` [Example 132, N-(5-((5-(4-(dimethylcarbamoyl)phenyl)pyridin-2-yl)amino)pyridin-3-yl)-1-hydroxy-1,3-dihydrobenzo[c][1,2]oxaborole-5-carboxamide]: the pIC50 was 7.00 to 8.00 against PIP4K2A [1], 8.00 to 9.00 at PIP4K2A [2] and 7.00 to 8.00 on PIP4K2B.
With `CN(C)C(=O)c1ccc(-c2ccc(Nc3cncc(NC(=O)c4ccc5c(c4)B(O)OC5)c3)nc2)cc1` [Example 133, N-(5-((5-(4-(dimethylcarbamoyl)phenyl)pyridin-2-yl)amino)pyridin-3-yl)-1-hydroxy-1,3-dihydrobenzo[c][1,2]oxaborole-6-carboxamide], the pIC50 at PIP4K2A [1], against PIP4K2A [2] and on PIP4K2B was 7.00 to 8.00 throughout.
Consider `CN(C)C(=O)c1ccc(-c2ccc(Nc3cncc(N4CCC(Cc5cccc(N)c5)C4=O)c3)nc2)cc1` (stereo not drawn) [Example 134, 4-(6-((5-(3-(3-aminobenzyl)-2-oxopyrrolidin-1-yl)pyridin-3-yl)amino)pyridin-3-yl)-N,N-dimethylbenzamide], for which the pIC50 at PIP4K2A [1], against PIP4K2A [2] and on PIP4K2B was 7.00 to 8.00 in each case.
For `CN(C)C(=O)c1ccc(-c2ccc(Nc3cncc(NC(=O)c4ccc5cc[nH]c5c4)c3)nc2)cc1` [Example 135, N-(5-((5-(4-(dimethylcarbamoyl)phenyl)pyridin-2-yl)amino)pyridin-3-yl)-1H-indole-6-carboxamide], the pIC50 against PIP4K2A [1], against PIP4K2A [2] and on PIP4K2B was 7.00 to 8.00 in each case.
For `CN(C)C(=O)c1ccc(-c2ccc(Nc3cncc(NC(=O)c4ccc5ncoc5c4)c3)nc2)cc1` [Example 136, N-(5-((5-(4-(dimethylcarbamoyl)phenyl)pyridin-2-yl)amino)pyridin-3-yl)benzo[d]oxazole-6-carboxamide], the pIC50 at PIP4K2A [1], on PIP4K2A [2] and at PIP4K2B was 7.00 to 8.00 in each case.
For the compound `CN(C)C(=O)c1ccc(-c2ccc(Nc3cncc(NC(=O)CCc4ccccc4)c3)nc2)cc1` [Example 137, N,N-dimethyl-4-(6-((5-(3-phenylpropanamido)pyridin-3-yl)amino)pyridin-3-yl)benzamide], the pIC50 on PIP4K2A [1], at PIP4K2A [2] and at PIP4K2B was 7.00 to 8.00 each time.
